Our source for the IC50 values is patent US9586931B2 (Merck Sharp & Dohme Corp., priority 2012, dated 2017).

The structures appear in SMILES notation.

This assay concerns the target T1, recombinant human GST-Syk (Homo sapiens, UniProt P43405).
T1 construct: purchased Carna Biosciences 08-176
Nature of the assay: Homogeneous Time-Resolved Fluorescence (HTRF) assay for the recombinant human Syk enzyme. The format is biochemical. The following applies: recombinant human GST-Syk 5 pM, ATP 25 μM, 10-dose titration 10 μM to 0.508 nM; read-out: rhSYK Activity IC50. The method, boiled down: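 GST-hSyk fusion protein phosphorylated a peptide for 45 min at room temperature. The reaction was quenched with 2 nM Eu-anti-phosphotyrosine antibody and 70 nM SA-APC in 15 mM Tris pH 7.5, 40 mM EDTA, 0.01% Tween 20. The HTRF signal was read after 30 min.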
Consider `Cc1cc(Nc2cc(C(F)(F)F)ccn2)nc(-c2cn(C(C)C(=O)N3CCc4cc(O)c(O)cc4C(c4ccccc4)C3)nn2)c1` (centres unmarked) [Example 1.54, 3-{2-[4-(4-methyl-6-{[4-(trifluoromethyl)pyridin-2-yl]amino}pyridin-2-yl)-1H-1,2,3-triazol-1-yl]propanoyl}-1-phenyl-2,3,4,5-tetrahydro-1H-3-benzazepine-7,8-diol], for which the IC50 stood at 0.134 µM. As for `Cc1cc(Nc2cc(C(F)(F)F)ccn2)nc(-c2cn([C@@H](C)c3ccc(C(=O)O)cc3)nn2)c1` [Example 9.7, 4-{(1S)-1-[4-(4-methyl-6-{[4-(trifluoromethyl)pyridin-2-yl]amino}pyridin-2-yl)-1H-1,2,3-triazol-1-yl]ethyl}benzoic acid], the IC50 was determined as 0.0033 µM. The same measure for `Cc1cc(Nc2cc(C(F)(F)F)ccn2)nc(-c2cn(C(C)C(=O)NCCc3c[nH]c4ccc(OCc5ccccc5)cc34)nn2)c1` (centres unmarked) [Example 1.30, N-{2-[5-(benzyloxy)-1H-indol-3-yl]ethyl}-2-[4-(4-methyl-6-{[4-(trifluoromethyl)pyridin-2-yl]amino}pyridin-2-yl)-1H-1,2,3-triazol-1-yl]propanamide]: 1.62 µM.

For the molecule `Cc1cc(Nc2cc(C(F)(F)F)ccn2)nc(-c2cn([C@@H](C)C(N)=O)nn2)c1` [Example 1.24, (2S)-2-[4-(4-methyl-6-{[4-(trifluoromethyl)pyridin-2-yl]amino}pyridin-2-yl)-1H-1,2,3-triazol-1-yl]propanamide], the 50% inhibitory concentration (IC50) was 0.0142 µM. In the case of `Cc1cc(Nc2nccc(C(F)F)n2)cc(-c2cn(C(C)C(C)(O)CO)nn2)c1` (single isomer, unassigned) [Example 30.1, 3-(4-(3-((4-(Difluoromethyl)pyrimidin-2-yl)amino)-5-methylphenyl)-1H-1,2,3-triazol-1-yl)-2-methylbutane-1,2-diol], the half-maximal inhibitory concentration (IC50) turned out to be 0.0124 µM.

Turning to `Cc1cc(Nc2cc(C(F)(F)F)ccn2)nc(-c2cn(C(C)C(=O)NCCc3cccc(Oc4ccccc4)c3)nn2)c1` (centres unmarked) [Example 1.36, 2-[4-(4-methyl-6-{[4-(trifluoromethyl)pyridin-2-yl]amino}pyridin-2-yl)-1H-1,2,3-triazol-1-yl]-N-[2-(3-phenoxyphenyl)ethyl]propanamide], the IC50 was 1.46 µM.

In the case of `Cc1cc(Nc2nccc(C(F)(F)F)n2)cc(-c2cn(C[C@H](O)CO)nn2)c1` [Example 5.24, (2S)-3-[4-(3-methyl-5-{[4-(trifluoromethyl)pyrimidin-2-yl]amino}phenyl)-1H-1,2,3-triazol-1-yl]propane-1,2-diol], the concentration for half-maximal inhibition (IC50) was 0.0246 µM.

Take `Cc1cc(Nc2cc(C(F)(F)F)ccn2)nc(-c2cn(C(C)C(=O)N3CCc4ccccc4C3)nn2)c1` (centres unmarked) [Example 1.28, 6-{1-[2-(3,4-dihydroisoquinolin-2(1H)-yl)-1-methyl-2-oxoethyl]-1H-1,2,3-triazol-4-yl}-4-methyl-N-[4-(trifluoromethyl)pyridin-2-yl]pyridin-2-amine]: the IC50 was determined as 0.645 µM. In the case of `Cc1cc(Nc2cc(C(F)(F)F)ccn2)nc(-c2cn(C(C)C(=O)NC3CCS(=O)(=O)C3)nn2)c1` (racemic) [Example 1.2, N-(1,1-Dioxidotetrahydrothiophen-3-yl)-2-[4-(4-methyl-6-{[4-(trifluoromethyl)pyridin-2-yl]amino}pyridin-2-yl)-1H-1,2,3-triazol-1-yl]propanamide (racemic)], the 50% inhibitory concentration (IC50) is 0.0428 µM. Turning to `Cc1cc(Nc2cc(C(F)(F)F)ccn2)nc(-c2cn(CC(O)C(=O)O)nn2)c1` (racemic) [Example 5.39, 2-hydroxy-3-[4-(4-methyl-6-{[4-(trifluoromethyl)pyridin-2-yl]amino}pyridin-2-yl)-1H-1,2,3-triazol-1-yl]propanoic acid], the half-inhibitory concentration (IC50) amounted to 0.0449 µM. `Cc1cc(Nc2nccc(C(F)F)n2)cc(-c2cn(CC3CNC(=O)C3)nn2)c1` (single isomer, unassigned) [Example 28.2, 4-((4-(3-((4-(difluoromethyl)pyrimidin-2-yl)amino)-5-methylphenyl)-1H-1,2,3-triazol-1-yl)methyl)pyrrolidin-2-one]: the 50% inhibitory concentration (IC50) was 0.0054 µM.

Turning to `Cc1cc(Nc2cc(C(F)(F)F)ccn2)nc(-c2cn([C@H](C)c3ccc(C(=O)O)cc3)nn2)c1` [Example 9.5, 4-{(1R)-1-[4-(4-methyl-6-{[4-(trifluoromethyl)-pyridin-2-yl]amino}pyridin-2-yl)-1H-1,2,3-triazol-1-yl]ethyl}benzoic acid], the IC50 was determined as 0.0081 µM. On to `Cc1cc(Nc2cc(C(F)(F)F)ccn2)nc(-c2cn(CC(=O)N3CCC(C(=O)O)CC3)nn2)c1` (racemic) [Example 5.80, 1-{[4-(4-methyl-6-{[4-(trifluoromethyl)pyridin-2-yl]amino}pyridin-2-yl)-1H-1,2,3-triazol-1-yl]acetyl}piperidine-4-carboxylic acid], for which the IC50 came out at 0.0245 µM.

As to `CCC(O)Cn1cc(-c2cc(C)cc(Nc3cc(C(F)(F)F)ccn3)n2)nn1` (racemic) [Example 5.5, 1-[4-(4-methyl-6-{[4-(trifluoromethyl)pyridin-2-yl]amino}pyridin-2-yl)-1H-1,2,3-triazol-1-yl]butan-2-ol], the concentration for half-maximal inhibition (IC50) was determined as 0.0158 µM.

Consider `Cc1cc(Nc2nccc(C)n2)cc(-c2cn(C[C@](C)(O)CO)nn2)c1` (single isomer, unassigned) [Example 21.1, 2-Methyl-3-(4-(3-methyl-5-((4-methylpyrimidin-2-yl)amino)phenyl)-1H-1,2,3-triazol-1-yl)propane-1,2-diol], for which the 50% inhibitory concentration (IC50) turned out to be 0.0062 µM. Consider `Cc1cc(Nc2nccc(C(F)(F)F)n2)cc(-n2cc([C@]3(O)CC[C@H](C(=O)O)CC3)nn2)c1` [Example 15.3, trans-4-hydroxy-4-[1-(3-methyl-5-{[4-(trifluoromethyl)pyrimidin-2-yl]amino}phenyl)-1H-1,2,3-triazol-4-yl]cyclohexanecarboxylic acid], for which the IC50 amounted to 0.232 µM. In the case of `Cc1cc(Nc2nccc(C(F)(F)F)n2)cc(-n2cc([Si](C)(C)C)nn2)c1` [Example 15.12, N-{3-methyl-5-[4-(trimethylsilyl)-1H-1,2,3-triazol-1-yl]phenyl}-4-(trifluoromethyl)pyrimidin-2-amine], the IC50 came out at 0.284 µM. Take `COc1ccnc(Nc2cc(C)cc(-c3cn(CC(C)(O)C(C)(C)O)nn3)c2)n1` (centres unmarked) [Example 21.23, 1-(4-{3-[(4-methoxypyrimidin-2-yl)amino]-5-methylphenyl}-1H-1,2,3-triazol-1-yl)-2,3-dimethylbutane-2,3-diol]: the IC50 came out at 0.0279 µM. Consider `CC(O)(CO)Cn1cc(-c2cccc(Nc3nccc(C(F)(F)F)n3)c2)nn1` (single isomer, unassigned) [Example 21.5, 2-methyl-3-[4-(3-{[4-(trifluoromethyl)pyrimidin-2-yl]amino}phenyl)-1H-1,2,3-triazol-1-yl]propane-1,2-diol], for which the IC50 came out at 0.047 µM. `Cc1cc(Nc2cc(C(F)(F)F)ccn2)nc(-c2cn(C(C)C(N)=O)nn2)c1` (centres unmarked) [Example 1.25, 2-[4-(4-methyl-6-{[4-(trifluoromethyl)pyridin-2-yl]amino}pyridin-2-yl)-1H-1,2,3-triazol-1-yl]propanamide]: the IC50 is 0.0088 µM. `Cc1cc(Nc2nccc(C(F)F)n2)cc(-c2cn(CC3OC(=O)NC3C)nn2)c1` (single isomer, unassigned) [Example 7.42, 5-{[4-(3-{[4-(difluoromethyl)pyrimidin-2-yl]amino}-5-methylphenyl)-1H-1,2,3-triazol-1-yl]methyl}-4-methyl-1,3-oxazolidin-2-one]: the 50% inhibitory concentration (IC50) was determined as 0.0107 µM.

On to `Cc1cc(Nc2cc(C(F)(F)F)ccn2)nc(-c2cn(C3CNCC3O)nn2)c1` (racemic) [Example 5.22, 4-[4-(4-methyl-6-{[4-(trifluoromethyl)pyridin-2-yl]amino}pyridin-2-yl)-1H-1,2,3-triazol-1-yl]pyrrolidin-3-ol], for which the IC50 worked out at 0.0198 µM.

For the molecule `Cc1cc(Nc2ncc(F)c(C(F)F)n2)cc(-c2cn(Cc3ccc(O)nc3)nn2)c1` [Example 32, 5-((4-(3-((4-(difluoromethyl)-5-fluoropyrimidin-2-yl)amino)-5-methylphenyl)-1H-1,2,3-triazol-1-yl)methyl)pyridin-2-ol], the IC50 is 0.0068 µM. As for `Cc1cc(Nc2nccc(C(F)(F)F)n2)cc(-n2ccnn2)c1` [Example 15.11, N-[3-methyl-5-(1H-1,2,3-triazol-1-yl)phenyl]-4-(trifluoromethyl)pyrimidin-2-amine], the half-maximal inhibitory concentration (IC50) amounted to 0.102 µM. On to `Cc1cc(Nc2nccc(C(F)F)n2)cc(-c2cn(CC3CNC(=O)O3)nn2)c1` (single isomer, unassigned) [Example 7.5, 5-((4-(3-((4-(difluoromethyl)pyrimidin-2-yl)amino)-5-methylphenyl)-1H-1,2,3-triazol-1-yl)methyl)oxazolidin-2-one], for which the half-maximal inhibitory concentration (IC50) is 0.0071 µM.

Take `Cc1cc(Nc2cc(C(F)F)ccn2)nc(-c2cn(CC3OC(=O)NC3C)nn2)c1` (single isomer, unassigned) [Example 7.15, 5-((4-(6-((4-(difluoromethyl)pyridin-2-yl)amino)-4-methylpyridin-2-yl)-1H-1,2,3-triazol-1-yl)methyl)-4-methyloxazolidin-2-one]: the IC50 was determined as 0.0043 µM. The same measure for `Cc1cc(Nc2cc(C(F)(F)F)ccn2)nc(-c2cn(CC3(O)CCOCC3)nn2)c1` [Example 4.13, 4-{[4-(4-methyl-6-{[4-(trifluoromethyl)pyridin-2-yl]amino}pyridin-2-yl)-1H-1,2,3-triazol-1-yl]methyl}tetrahydro-2H-pyran-4-ol]: 0.0256 µM; for `Cc1cc(Nc2nccc(C(F)(F)F)n2)cc(-c2cn(CCCN3CCNC3=O)nn2)c1` [Example 5.71, 1-{3-[4-(3-methyl-5-{[4-(trifluoromethyl)pyrimidin-2-yl]amino}phenyl)-1H-1,2,3-triazol-1-yl]propyl}imidazolidin-2-one]: 0.152 µM; for `COCc1cc(Nc2nccc(C(F)(F)F)n2)cc(-c2cn(C[C@H](O)CO)nn2)c1` [Example 5.23, (2S)-3-{4-[3-(methoxymethyl)-5-{[4-(trifluoromethyl)pyrimidin-2-yl]amino}phenyl]-1H-1,2,3-triazol-1-yl}propane-1,2-diol]: 0.0647 µM.
